We go through five molecules from ChEMBL document CHEMBL3616413, “Isolation and structure of vanitaracin A, a novel anti-hepatitis B virus compound from Talaromyces sp” (Bioorg Med Chem Lett, 2015).

For one data set, the system named is Hepatitis B virus. Nature of the data set: Antiviral activity against HBV infected in human HepG2 cells expressing hNTCP-C4 assessed as viral envelope surface protein secretion treated for 16 hrs followed by compound washout measured after 12 days by ELISA. It counts as functional, organism-based. (ELISA stands for enzyme-linked immunosorbent assay.)
Data set [1] is described as follows: Cytotoxicity against human HepG2 cells expressing hNTCP-C4 assessed as cell viability by MTT assay. It counts as cell-based. Also on record: concentration or dose not given beside the values. The conditions noted are these: read-out: Activity. (Tetrazolium assays rely on reduction of a dye to a coloured formazan, in cell work by metabolically active cells.)

Molecules are shown by their SMILES.

By IC50 is commonly meant the point on the concentration scale where inhibition reaches its midpoint. In the case of `CCC(C)CC(C)C(=O)OC1(C)C(=O)Cc2cc(O)c3c(c2C1=O)C[C@@H](O)C[C@H]3C` (stereo not given in full), in the data set on Hepatitis B virus, the IC50 came out at 91.2 µM. Besides, the viability in data set [1] was > 90%.
On the same counts, the results for `CCC(C)CC(C)C(=O)OC1(C)C(=O)c2c(cc(O)c3c2C[C@@H](O)C[C@H]3C)C(C)(O)C1=O` (stereo not given in full) are 10.5 µM and > 90%.
With `CCC(=O)CC1(O)CC(=O)c2c(C)cc(O)cc2O1` (stereo not given), the IC50 in the data set with Hepatitis B virus worked out at 52.1 µM. For the same molecule, the viability in data set [1] is > 90%.
Taken in the same sequence, the figures for `CCC(=O)Cc1cc(=O)c2c(C)cc(O)cc2o1` were 72.4 µM and > 90%.
Taken in the same sequence, the figures for `Cc1cccc(O)c1C(=O)Cc1c(C=O)cc(O)c(C)c1O` were 51.4 µM and > 90%.
